# Measurements published in patent US20020173551A1 (priority 1998, published 2002).
# Structures can show the parent of a compound that is named as a salt.
# How the values were obtained:
# herpes simplex II = assay: Case report: recurrent buttock herpes simplex II; format: in vivo, humans; conditions: Example 6, case two
# Description: The sixth case was patient two, a reporter. […] This was given for recurrent buttock herpes simplex II, This was ceased and after 1 year, the hypertension and renal impairment reverted to normal.
# [1] = tested on: HSV I / herpes labialis (cold sores); assay: Case reports: herpes labialis (cold sores) treated with bupropion; format: in vivo, humans
# Description: […] They have approximately 1 episode per month related to menstrual periods. This has been occurring for the last 6 years and has lasted for at least a week of every month. The severity varied according to […] general state of health and stress levels. The outbreaks lasted at least one week and have made a significant impact on their psychological state. They have not been on systemic therapy.
# The third case was patient five, a entrepreneur. They have a coffee shop chain. They are thus very visible and they are very self-conscious of even minor blemishes on their face. They have mild herpes labialis (cold sores), which occurs approximately 5 times a year. They have taken intermittent acyelovir and has even considered continuous acyclovir, because of their image.
# […] They had been paying for acyclovir privately, despite the cost, because of their wish to suppress their frequent and unsightly lesions. […] An attack was treated within 24 hours on the two agents.
# […] This involved the nares, upper and lower lips bilaterally. […] Their partner also developed scarlet fever as well. […] It should be noted that this patient is usually very intolerant of medications and tends to vomit easily.
# Her normal herpes labialis lasted between 5 and 7 days.
# [2] = tested on: HSV I / herpes labialis (cold sores); assay: as above; format: in vivo, humans; remark: listed apart in the source
# [3] = tested on: neuronal uptake of noradrenahne (NA); conditions: cited from earlier work
# [4] = tested on: neuronal uptake of dopamine (DA); conditions: cited from earlier work
# [5] = tested on: genital Herpes Simplex viral infection; assay: Case reports: recurrent genital herpes treated with bupropion; format: in vivo, humans
# Description: There were 5-6 recurrences per year. […] The fourth case was patient one, a student with extensive genital herpes. They have had 4 attacks thus far, which have been treated initially with acyclovir and then later with famciclovix. The normal duration of these attacks on these agents was 5-7 days. They were unable to attend classes and took a further 2 weeks before they felt normal. A big feature of their illness is the severe fatigue that precedes and follows their attacks. […] They had not developed any post-[…] fatigue either. They later used a further 2 day course when they felt tingling.
# herpes virus = assay: Overall assessment of the case series against other anti-viral agents; format: in vivo, humans; conditions: treatment and prevention of infections caused by the herpes virus
# Description: The physician conducting the above trials has reported that the results thus far have been beyond expectation. They are commented that “not only has there been a success from a completely unlikely agent, but there has also been a success beyond that achieved by the well-established anti-viral agents.”
# monoamine oxidase = conditions: cited from earlier work
# [6] = Side effects observed in the treated cases; format: in vivo, humans
# Description: The sixth case was patient two, a reporter. […] This was given for recurrent buttock herpes simplex II, This was ceased and after 1 year, the hypertension and renal impairment reverted to normal. […] This involved the nares, upper and lower lips bilaterally. Even after topical acyclovir, the course of the illness was 2 weeks of significant outbreak. […] Their partner also developed scarlet fever as well. […] It should be noted that this patient is usually very intolerant of medications and tends to vomit easily.
# [7] = Example 1, case gamma, 4 doses of 150 mg over 2 days
# [8] = Example 4, case one, 300 mg twice daily for 2 days
compound,measurement,setting,value
"CC(NC(C)(C)C)C(=O)c1cccc(Cl)c1 (racemic) [bupropion, (±)-1-(3-chlorophenyl)-2-[(1,1-dimethylethyl)-amino)-1-propanone hydrochloride]",eruptions,herpes simplex II; taken at onset of pre-outbreak symptoms,has not had an eruption since
same,complete resolution of lesions (day of outbreak),"[1]; Example 2, case four, HSV I cold sores, 300 mg twice daily for 2 days from day 2 of outbreak",≤ 3 days
same,minor recurrence one week later,"[1]; Example 2, case four, similar dosage",aborted by a similar dosage within the first day
same,eruptions,"[1]; Example 3, case five, 2 tablets of 150 mg when they feel the tingling",has not had an eruption in the last 3 months
same,outbreak after tingling of the lip,"[1]; Example 5, case beta, 150 mg every 12 hours for 2 days, two episodes",No outbreak of herpes labialis occurred
same,lesion by day 5,"[1]; Example 7, case alpha",hardly noticeable
same,time after which the lesion started disappearing,"[1]; Example 7, case alpha",3 days
same,progression of lesions,"[1]; Example 7, case three, within 36 hours of taking 300 mg",did not progress from their initial lesion
same,time until the lesion had dried out,"[2]; Example 8, 150 mg twice daily for 2 days",≤ 24 h
same,further time until the lesion was scabbing,"[2]; Example 8, 150 mg twice daily for 2 days, after drying out",≤ 12 h
same,time to complete resolution (later),"[2]; Example 8, 150 mg twice daily for 2 days, after scabbing",3 days
same,inhibition of neuronal uptake of noradrenaline,[3],relatively weak inhibitor
same,inhibition of neuronal uptake of dopamine,[4],relatively weak inhibitor
same,time until the attack was aborted,"[5]; Example 1, case gamma, first use of bupropion",≤ 2 days
same,outcome of an attack about to commence,[5]; [7],"aborts the attack completely, or reduces it to a small crop of lesions"
same,time to complete healing of the small crop of lesions,[5]; [7],≤ 48 h
same,recurrence since commencing the regime,"[5]; Example 1, case gamma, over one year",There has not been a single significant recurrence
same,lesions after treatment,[5]; [8],lesions had cleared completely
same,post-viraemia fatigue,[5]; [8],had not developed any post-viraemia fatigue
same,eruptions after a further course at tingling,"[5]; Example 4, case one, further 2 day course",did not develop any eruptions
same,comparison with other anti-viral agents such as acydovir and famciclovir,herpes virus,superior to many other anti-viral agents
same,inhibition of monoamine oxidase,monoamine oxidase,does not inhibit
same,concurrent scarlet fever,"[6]; Example 7, case alpha",did not worsen
same,side effects,"[6]; Example 7, case three, usually very intolerant of medications",No side effects were noticed
CC(=O)OCC(CCn1cnc2cnc(N)nc21)COC(C)=O [Famciclovir],interval between minor outbreaks (approximately once every),herpes simplex II; continuous therapy,2-3 months
same,suppression of disease,herpes simplex II; continuous therapy,successfully suppressed their disease
Nc1nc2c(ncn2COCCO)c(=O)[nH]1 [acyclovir],duration of attacks,"[1]; Example 3, case five, mild herpes labialis, taken with the tingling",3 days
same,severity of attacks,"[1]; Example 3, case five, taken with the tingling",barely detectable
same,lesions during suppressive therapy,"[1]; Example 5, case beta, recurrent herpes labialis",breakthrough lesions
same,course of the illness (significant outbreak),"[1]; Example 7, case three, severe herpes labialis, topical",2 weeks
same,effect of topical therapy,"[2]; Example 8, medical receptionist, herpes labialis, topical, in the past",unhelpful
same,effect in aborting the attacks,"[5]; Example 1, case gamma",partially effective
same,duration of the attacks,"[5]; Example 1, case gamma, recurrent genital Herpes Simplex, reduced from 2 weeks",5 to 7 days
same,adverse effects,"[6]; Example 6, case two, given for recurrent buttock herpes simplex II, reverted to normal 1 year after ceasing",developed hypertension and mild renal impairment
